Test results: publication PMC10470313, “Developing a peptide to disrupt cohesin head domain interactions” (iScience, 2023)
Where no end group is shown, it is not given here.

How the values were obtained:
[1] = tested on: cohesin (Smc3-V5) on chromatin, yKS-008 strain; test: Chromatin immunoprecipitation (ChIP) of cohesin (Smc3-V5); type: cell-based, yeast; settings: G2/M arrested; anti-V5 ChIP-qPCR; centromeres of chromosomes 3 and 4, rDNA locus chromosome 12, CARC1 chromosome 3
Experimental: To test the effect of CIP3 on the association of cohesin with chromatin, we performed a chromatin immunoprecipitation (ChIP) assay. yKS-008 strain (Smc3-V5) cells were grown to mid-log phase and arrested in the G1 phase of the cell cycle. Cells were untreated or supplemented with CIP3-TAT and then released into the cell cycle until they were rearrested at the G2/M phase. Cells were processed for ChIP with antibodies against V5 (Figure 4D). Cohesin residency was explored on loci on which cohesin enrichment: the centromeres of chromosome 3 and chromosome 4, the rDNA locus on chromosome 12 and the cohesin-associated region C1 (CARC1) on chromosome 3. […] However, it stabilizes non-cohesive chromosome-bound cohesin. […] Thus, we conclude that CIP3 inhibits ATP hydrolysis rather than blocks ATP binding and cohesin loading.
The cohesion GFP dot assay and ChIP are described in.[46]^,[63]^,[68] In brief, cohesion was studied by visualizing LacO arrays inserted at the LYS locus in a strain expressing LacI-GFP. Cell cultures were grown in a YEPD to OD600=0.5 and synchronized by nocodazole. Cells were fixed by incubating with 100 μl of 4% paraformaldehyde, 15min at room temperature and washed once (5,000rpm, 30sec, room temperature) with 1ml KOP4/sorbitol solution (0.1 M KOP4 pH=7.5 with 1.2 M sorbitol), resuspended in 100 μl of KOP4/sorbitol and stored at 4°C up to one month. […]

U2OS cells = test: Mitosis time in U2OS cells (live-cell imaging); type: cell-based, human; settings: 10 nM peptide, 20 h, images every 5 min
Experimental: CIP3 was derived from a highly conserved region of Smc1 (Figure 1D). Therefore, we sought to test its ability to affect cohesin activity in human cells. U2OS cells were diluted into a 96-well plate and grown for about 20 h. Added to this was 10 nM peptide and the cells were grown for another 20 h. Images of the cells were taken every 5 min (Figure 5A). We expected cohesion loss to result in a mitotic delay. We calculated mitosis time starting from the first image in which condensed mitotic chromosomes were visualized until their disappearance at mitosis exit. Strikingly, the average mitosis time in CIP3-TAT treated cells increased by about 10% (from 6 to 6.5 min), indicating a mitotic delay (Figure 5B).
Figure 5 CIP3 causes a mitotic delay in human cells U2OS cells were plated in a 96-well plate and grown for 20 h to allow adherence. […] Mitosis length was determined by counting the number of images in which mitotic chromosomes were visualized. […] (B) Quantitation of mitosis length in untreated and CIP3-TAT treated cells. At least 300 cells were counted for each condition. ∗∗∗p < 0.0001.
U2OS cells were maintained in Dulbecco's Modified Eagle Medium (DMEM) (Gibco) with 10% fetal bovine serum (FBS) (Corning), 2 mM l-glutamine (Gibco), 1% penicillin-streptomycin (Gibco), and 1 mM sodium pyruvate (Gibco), at 37°C, 5% CO2. […] The significance between conditions was determined by using Student's t-test.

[2] = tested on: yME-961 strain yeast cells; test: Cell cycle stage by flow cytometry; type: cell-based; settings: peptide 1 h at G1, release to G2/M arrest
Experimental: The potential of CIP3-TAT to inhibit cohesion activity was explored by analyzing sister chromatid cohesion in cells arrested at the G2/M. Inserted in the LYS4 locus were LacO arrays, which bind LacI-GFP. In unperturbed cells arrested at the G2/M phase of the cell cycle, cohesin tethers the sister chromatids visualized under the microscope as a single GFP dot. When cohesin is inactivated, the sister chromatids fall apart and are seen as two distinctive GFP dots. yME-961 strain cells were grown to mid-log phase and arrested at the G1 phase of the cell cycle. Cells were divided into three samples, of which two were supplemented with TAT peptide alone or CIP3-TAT for 1 h. Then, the cells were released into the cell cycle until their rearrest at the G2/M phase. Cells were processed for cohesion assay (Figure 4A).
Supplementary Figure S3. Binding of CIP3-TAT to cohesin by microscale thermophoresis, Related to Figure 3. 10 µM CIP3-TAT was added to protein extracts from strain yAM-945 (Smc3-GFP). The formation of the CIP3-TAT and cohesin complex was analyzed by MST in binding mode. A. MST trace. […]
3. […] The purified proteins were analyzed on gel, followed by coomassie staining. […]
Supplementary Figure S5. […] The entry of the peptide into the cells was analyzed by epifluorescence microscopy.
Supplementary Figure S6. […] The cell cycle stage of the cells, described in Fig. 4B, was determined by flow cytometry. […]

What does the source list for KRFKDMEYLSGGEKTGGYGRKKRRQRRR [CIP3-TAT]?
cohesin residency on chromatin [1]: cohesin residency increased in cells treated with CIP3-TAT in all tested regions; average mitosis time (U2OS cells; untreated: 6 min, at least 300 cells per condition): 6.5 min; increase of average mitosis time (U2OS cells; vs untreated): about 10%; cell cycle delay [2]: No cell cycle delays
